Results as given in US20260144783A1, “COMPOSITION FOR PREVENTING OR TREATING PERIPHERAL NEUROPATHY, CONTAINING ISOQUINOLINE DERIVATIVE AS ACTIVE INGREDIENT” (ALTMEDICAL CO., LTD., priority 2022, published 2026).

Columns and labels:
[1] = test system: BEAS-2B cell line; test: mitophagy activity, mt-Keima fluorescent protein (FACS, confocal microscope, mito-YFP); assay type: cell-based, human
Protocol: To analyze the mitophagy-promoting activity effect of the CD1-012 synthesized in the Example 1, the BEAS-2B cell line, which is a human normal lung cell line, was induced to express the mt-Keima fluorescent protein. Following this, the CD1-012 (15 μM) and the compound of Comparative Example 1, CCCP (10 μM), were treated for 24 hours. After the treatment, the mitophagy activity of each sample was measured, and the results were represented in FIGS. 1A to IC.
Specifically, FIG. 1A represents the analysis results using flow cytometry (FACS) (treatment of CD1-012 at 15 µM for 24 hours), FIG. 1B represents the analysis results using a confocal microscope (treatment of CD1-012 at 15 μM for 18 hours), and FIG. 1C represents the measurement results of the quantitative changes in the mitochondria using a fluorescent protein, mito-YFP, which includes a targeting sequence to transport protein to the mitochondria (treatment of CD1-012 at 20 μM for 24 hours).
It was confirmed whether CD1-012 synthesized in Example 1 promotes mitophagy activity in a concentration- and time-dependent manner. To this end, the CD1-012 was treated at various concentrations or at a fixed concentration (15 μM) for different treatment durations in the BEAS-2B cell line expressing mt-Keima, and mitophagy activity was measured using a flow cytometer.
(§1) It was confirmed whether CD1-012 synthesized in Example 1 specifically increases only mitophagy activity. To this end, the BEAS-2B cell line expressing mt-Keima was treated with CD1-012 (15 μM) or Comparative Example 1 (CCCP, 10 μM) for 18 hours, and mitophagy activity was analyzed using a confocal microscope. Additionally, to measure autophagy activity, the BEAS-2B cell line expressing Keima fluorescent protein was incubated in Hanks' balanced salt solution (HBSS) for 3 hours to induce a starvation condition (starv.), and the results were compared with samples treated with CD1-012 (15 μM) for 18 hours using a confocal microscope.
To this end, the human normal lung cell line BEAS-2B, expressing mt-Keima fluorescent protein, was treated with CD1-012, Comparative Example 2 (palmatine), or Comparative Example 3 (berberine) at various concentrations, and the mitophagy-inducing activity of each sample was compared.

[2] = test system: BEAS-2B cell line; test: autophagy activity, Keima fluorescent protein, confocal microscope; assay type: cell-based, human; conditions: 15 μM 18 h, BEAS-2B expressing Keima, FIG. 4B
Protocol: as §1

[3] = test system: mitochondrial membrane potential; test: TMRM assay; assay type: cell-based; conditions: CD1-012 10 μM or 15 μM, CCCP 10 μM, 24 hours
Protocol: It was confirmed whether the isoquinoline derivative according to the present invention induces mitochondrial dysfunction, similar to CCCP. To this end, the CD1-012 (10 μM or 15 μM) and CCCP (10 μM) were treated for 24 hours, and the mitochondrial membrane potential and mitochondrial reactive oxygen species (ROS) levels in each sample were analyzed. Mitochondrial membrane potential was analyzed using the TMRM (tetramethylrhodamine methyl ester) assay, and mitochondrial ROS levels were analyzed using the MitoSOX assay.

[4] = test system: BEAS-2B cell line, in which PINK1 was knocked down (shPINK1); test: mitophagy activity in PINK1 knockdown cell line (FACS); assay type: cell-based, human; conditions: CCCP 10 μM or CD1-012 15 μM, 18 hours
Protocol: In this example, it was confirmed whether the mitophagy activation function of the isoquinoline derivative according to the present invention is dependent on the PINK1-Parkin pathway. To this end, after a BEAS-2B cell line, in which PINK1 was knocked down using short hairpin RNA (shRNA), was treated with CCCP (10 μM) of Comparative Example 1 or CD1-012 (15 μM) for 18 hours, the mitophagy activity of each sample was analyzed using flow cytometry (FACS).

[5] = test system: C4da sensory neurons (ppk1a>CD4-tdTom Drosophila); test: morphology of dendritic branches of C4da sensory neurons; assay type: in vivo; conditions: CD1-012 co-administered with paclitaxel
Excerpt: To analyze the morphological changes in the dendritic branches of C4da sensory neurons, transgenic Drosophila expressing the fluorescent protein CD4-tdTomato specifically in C4da neurons (ppk^1a>CD4-tdTom) was generated. After treatment of the transgenic flies with paclitaxel and CD1-012, morphological changes in the dendritic branches of C4da sensory neurons were examined. As a result, treatment with paclitaxel increased the total dendrite length and the number of dendritic branches by 22% and 33%, respectively, confirming that morphological changes in the sensory neurons were induced.

[6] = test system: Drosophila expressing shATG5 in C4da sensory neurons; test: heat probe assay, ATG5 suppressed; assay type: in vivo; conditions: ATG5 expression suppressed; paclitaxel 20 μM and CD1-012 1 mM, 40° C. probe
Protocol: (§2) In this example, an experiment was conducted to verify the therapeutic mechanism of the compound according to the present invention on peripheral neuropathy, particularly chemotherapy-induced peripheral neuropathy. To this end, the therapeutic effect of CD1-012 on peripheral neuropathy was evaluated using animal models in which the expression of ATG5 or ATG7, essential genes in the canonical mitophagy pathway, the most representative mitophagy regulatory pathway, was suppressed. Specifically, paclitaxel (20 μM) and CD1-012 (1 mM) were co-administered to Drosophila expressing shATG7 or shATG5 in C4da sensory neurons, as well as to control flies (wild-type), and a heat probe assay was conducted using a 40° C. thermal probe.

[7] = test system: Drosophila expressing shATG7 in C4da sensory neurons; test: heat probe assay, ATG7 suppressed; assay type: in vivo; conditions: ATG7 expression suppressed; paclitaxel 20 μM and CD1-012 1 mM, 40° C. probe
Protocol: as §2

[8] = test system: chemotherapy-induced peripheral neuropathy mouse model; test: vonfrey hair test, peripheral neuropathy mouse model; assay type: in vivo; conditions: mice, CD1-012 10 mg/kg or 20 mg/kg co-administered with paclitaxel, FIG. 12A
Protocol: To more clearly verify the therapeutic effect of the isoquinoline derivative of the present invention on peripheral neuropathy, particularly chemotherapy-induced peripheral neuropathy, experiments were conducted using a peripheral neuropathy mouse model. Specifically, peripheral neuropathy was induced in mice by administration of a chemotherapeutic agent (paclitaxel), and CD1-012 was co-administered at a dose of 10 mg/kg or 20 mg/kg. Sensitivity to pain was then analyzed using the vonfrey hair test.

[9] = 15 μM, BEAS-2B mt-Keima, FIG. 3B

## Oc1cc2c(cc1O)-c1cc3ccc(O)c(O)c3c[n+]1CC2 [CD1-012, 2,3,9,10-tetrahydroxy-5,6-dihydroisoquinolino[3,2-a]isoquinolin-7-ium bromide]
[1]; 15 μM 24 h, CCCP 10 μM
  mitophagy activity compared with CCCP-treated sample (FIG. 1A, FACS): increased as significantly as
[1]; [9]
  treatment time after which mitophagy activity began to significantly increase: 3 h
  treatment time at which mitophagy activity reached its maximum level: 18 h
[1]; BEAS-2B mt-Keima, FIG. 5
  concentration at which mitophagy activity reached its maximum (comparable level): 10 µM
  mitophagy-inducing activity relative to berberine: approximately 8 times
  mitophagy-inducing activity relative to palmatine: approximately 40 times
[1]; BEAS-2B mt-Keima, flow cytometer, FIG. 3A
  concentration at which mitophagy activity began to significantly increase compared to untreated control: ≥ 7.5 µM
[1]; BEAS-2B mt-Keima, CD1-012 15 μM 24 h FACS, 15 μM 18 h confocal, 20 μM 24 h mito-YFP
  mitophagy activity compared to the untreated control group (Con): significant increase
[1]; up to the maximum treatment concentration of 17.5 μM, FIG. 3A
  mitophagy activity, concentration dependence: continued to increase in a concentration-dependent manner
[2]
  autophagy activity compared to the untreated control group: no significant difference
[3]
  mitochondrial membrane potential: no decrease
[4]
  mitophagy activation in PINK1 knockdown cell line (shPINK1) compared to control: did not show a significant difference
[5]
  paclitaxel-induced increase in dendrite length: significantly suppressed
  paclitaxel-induced increase in number of branches: significantly suppressed
[6]
  therapeutic effect on chemotherapy-induced peripheral neuropathy (withdrawal latency): similarly observed
[7]
  therapeutic effect on chemotherapy-induced peripheral neuropathy (withdrawal latency): similarly observed
[8]
  hyperalgesic symptoms (sensitivity to pain): significant improvement
